Reference: US20120114636A1, “LOW MOLECULAR WEIGHT CYCLIN E (LMW-E) AS A BIOMARKER FOR PERSONALIZATION OF CANCER THERAPIES” (The Board of Regents of the University of Texas System, priority 2009, published 2012)
“And” between values parts separate entries of the source, which are not always exact repeats. Equal entries are not always repeated.

How the values were obtained:
Type in all cases: cell-based, human
MCF-7/Ac1 cells [1] = assay: Cell growth by cell counting, AD-stimulated cells; details: 3 days
Method: Cell growth. The effects of the aromatase inhibitors on MCF7/Ac1 cells growth were examined by counting the cells at the indicated time. The cells were detached from their flask using trypsin and counted using a Coulter counter machine.
To examine the effects of the three different aromatase inhibitors on the proliferation of MCF-7/Ac1 cells, cells were cultured in estrogen deprived, charcoal stripped serum media (CSSM). The response of the cells to 25 nM of androstenedione (AD) alone or AD plus one of the 3 aromatase inhibitors letrozole (FIG. 22A), anastrozole (FIG. 22B), and exemestane (FIG. 22C) was measured after 3 days of treatment. Cells maintained in CSSM were used as controls.
FIGS. 22A-22C show the effect of aromatase inhibitor treatment on proliferative response and cell cycle distribution of MCF-7/Ac1 cells. Cells were cultured in IMEM with 10% charcoal-stripped serum medium (CSSM) without phenol red and with 600 μg/ml of G418 for 4 days before plating. Cells (100,000) were seeded in 100 mm dishes and, 24 hrs later, were exposed for 3 days to the specific treatment. […] CSSM, untreated cells cultured in charcoal-stripped serum medium without phenol red and with 600 μg/ml of G418.

MCF-7/Ac1 cells [2] = assay: Cell cycle analysis by flow cytometry (PI)
Method: Cell cycle analysis. MCF-7/Ac1 cells were cultured in estrogen-deprived media with or without 25 nM 4-androstenedione, and treated with different concentrations of aromatase inhibitors. Untreated and drug treated cells were collected 72 hours later for flow cytometry and lysates were prepared for western blot and kinase assays.
Flow cytometry analysis. Cells were pelleted and resuspended in 1.5 ml of PBS, then fixed in 3.5 ml of 95% ethanol overnight at −20° C. After being washed, the pellets were resuspended in a solution of PBS containing 10 μg/ml propidium iodide, 20 μg/ml RNase A, 0.5% Tween 20, and 0.5% BSA and incubated at 37° C. for 30 min. The profiles of cells in the G0-G1, S, and G2-M phases of the cell cycle were analyzed at the M. D. Anderson Cancer Center Cytometry Core Facility on a FACS Caliber machine equipped with Cellquest or ModFit software.
FIGS. 22A-22C show the effect of aromatase inhibitor treatment on proliferative response and cell cycle distribution of MCF-7/Ac1 cells. Cells were cultured in IMEM with 10% charcoal-stripped serum medium (CSSM) without phenol red and with 600 μg/ml of G418 for 4 days before plating. Cells (100,000) were seeded in 100 mm dishes and, 24 hrs later, were exposed for 3 days to the specific treatment. […] Cell growth is expressed as the percentage of the cells compared with the control cells (25 nM AD treated cells, 575,000 cells at day 3). Columns, mean of two to three experiments, each in triplicates; bars, S.D. *, P<0.05, when compared to cells only treated with 25 nM AD; n.s, not significant. CSSM, untreated cells cultured in charcoal-stripped serum medium without phenol red and with 600 μg/ml of G418.

SKBr3 cells = assay: High throughput clonogenic assay, trastuzumab and roscovitine; details: agents alone or in combination
Method: (§1) FIGS. 27A-27B. […] FIG. 27B. […] Isobologram analysis and graphs were obtained using CalcuSyn software, which performs drug dose—effect calculation using the median effect method. Experiments were performed in triplicate and representative data are shown.

BT474 cells = assay: as above; details: agents alone or in combination
Method: as §1

MCF-7/Ac1 cells [3] = assay: Cell number of adenovirus-infected cells (LacZ, cyclin EL, T1, T2); details: 20 uM, uninfected, LacZ or cyclin E-T1 infected cells
Description: LMW cyclin E, but not full-length cyclin E, overexpressing MCF-7/Ac1 cells partially override the letrozole inhibition of AD-induced S-phase entry and AD-induced CDK2 protein levels. Since overexpression of LMW cyclin E deregulates the G1 to S transition, the inventors interrogated the role of full-length and LMW cyclin E in letrozole response. To this end, the inventors examined the sensitivity of cyclin E overexpressing MCF-7/Ac1 cells to the growth inhibitory effect of letrozole using adenoviruses to overexpress full-length and LMW cyclin E (FIGS. 24A-24D). MCF-7/Ac1 cells were cultured in charcoal stripped serum media (CSSM) for 4 days before infecting them with 4000 m.o.i. of either LacZ, full-length cyclin E (cyclin EL) or LMW cyclin E (cyclin E-T1 and cyclin E-T2). Twenty-four hours later, cells were left either untreated, treated with 25 nM AD alone, or treated with 25 nM AD plus 1 μM letrozole for an additional 3 days (FIGS. 24A-24B). Following the treatment, cells were enumerated or subjected to flow cytometry analysis.
MCF-7/Ac1 cells were cultured in IMEM with 10% charcoal-stripped serum medium (CSSM) without phenol red and with 600 μg/ml of G418 for 4 days before plating. Triplicate wells of 6-well plates were then infected with the indicated adenoviruses (at 4000 m.o.i.) 24 hours before drug treatment. Cells were then left untreated (E2W, estrogen withdrawal) or treated with 25 nM AD (AD) or treated with 25 nM AD and 1 μM letrozole (AD+Let) and collected 3 days later for cell number. Cell growth is expressed as the percentage of the cells compared with the control cells (25 nM AD treated cells). […] MCF-7/Ac1 cells were treated as described in A, and collected for flow cytometry analysis. Histograms represent the S-phase fraction expressed as the percentage of the cells in S-phase compared with the control cells (25 nM AD treated cells). […] The same cell lysates as in A and B were subjected to western blot analysis (50 μg of protein) with cyclin E and CDK2 antibodies. The bar graph represents the densitometric values of the phosphorylated CDK2 bands. […] Left, MCF-7/Ac1 cells were cultured in IMEM with 10% charcoal-stripped serum medium (CSSM) without phenol red and with 600 μg/ml of G418 for 4 days before plating. Cells were then infected with the indicated adenoviruses (at 4000 m.o.i.) 24 hours before drug treatment. Cells were then treated with 25 nM AD and 1 μM letrozole and collected 3 days later for cell number. […] Columns, mean of two to three experiments, each in triplicates; bars, S.D.
To directly address this question, MCF-7/Ac1 cells were cultured in charcoal stripped serum media (CSSM) for 4 days before adding medium with no virus or with 4000 m.o.i. of either LacZ, or LMW cyclin E (cyclin E-T1) adenoviruses. 24 hours later, cells were left untreated, treated with 25 nM AD alone, or treated with 25 nM AD plus 1 μM letrozole for 3 days (FIG. 24D). The AD-induced growth of MCF-7/Ac1 cells was inhibited by letrozole by 51% in uninfected cells and by 58% in LacZ infected cells while the growth of cyclin E-T1 infected cells was inhibited by only 20% (FIG. 24D, left).

[4] = system: cyclin E-associated kinase activity in MCF-7/Ac1 cells; assay: Cyclin E-associated kinase assay (histone H1); details: 25 nM AD, 3 days
Method: (§2) Immunoprecipitation and Immunoblotting. Two hundred fifty μg of cell extracts were used per immunoprecipitation with polyclonal antibody to cyclin E or polyclonal antibody to CDK2, coupled to protein A beads. After being washed, the immunoprecipitates were subjected to electrophoresis in 13% gels, transferred to Immobolin P, blocked, and incubated with the indicated antibodies as already described.
(§3) MCF-7/Ac1 cells were treated with the indicated concentrations of letrozole and AD for 3 days. Cyclin E kinase assays were performed by immunoprecipitating equal amounts of cell lysate (250 μg) with monoclonal antibodies to cyclin E coupled to protein A beads, using histone H1 as substrate. […] The same cell lysates were subjected to western blot analysis (50 μg of protein) with the indicated antibodies. […] The same cell lysates were first immunoprecipitated with cyclin E followed by western blot for p21 and p27. […] The same cell lysates were first immunoprecipitated with CDK2 followed by western blot for p21 and p27. The levels of proteins were measured by densitometric scanning of the corresponding bands and normalized using actin values. The values indicated at the bottom were compared to the values obtained with untreated cells.

MCF-7/Ac1 cells [5] = assay: Western blot of CDK2, phospho-CDK2, cyclin E, pRb; details: 25 nM AD
Method: FIG. 28. Effect of increasing concentrations of letrozole in the presence of 25 nM AD on CDK2 kinase activity, activated CDK2 and Rb phosphorylation of MCF7/Ac1 human breast cancer cells. MCF-7/Ac1 cells were treated with the indicated concentrations of letrozole and AD for 3 days. CDK2 kinase assays were performed by immunoprecipitating equal amounts of cell lysate (250 μg) with monoclonal antibodies to CDK2 (D12, sc-6248) coupled to protein G beads, using histone H1 as substrate. […] The same cell lysates were subjected to western blot analysis (50 μg of protein) with the indicated antibodies.
(§4) Western blot analysis. Cell lysates were prepared and subjected to western blot analysis as described previously (Akli et al., 2004). Briefly, 50 μg of protein were subjected to electrophoresis on SDS-PAGE and transferred to Immobilon P overnight at 4° C. at […] constant voltage. The blots were blocked overnight at 4° C. in BLOTTO [5% nonfat dried milk in 20 mM Tris, 137 mM NaCl, and 0.05% Tween (pH 7.6)]. After being washed, the blots were incubated in primary antibodies for 3 h. Primary antibodies used were cyclin E (HE-12; Santa Cruz Biotechnology), p21 (0P64; Oncogene Research Products, Boston, Mass.), p27 (K25020; BD Biosciences-Transduction Laboratories, Lexington, Ky.), cyclin-dependent kinase 2 (CDK2; Transduction Laboratories), and actin (Chemicon International, Inc., Temecula, Calif.). Blots were then incubated with goat anti-mouse or anti-rabbit immunoglobulin-horseradish peroxidase conjugate at a dilution of 1:5000 in BLOTTO for 1 h and finally washed and developed by using the Renaissance chemiluminescence system as directed by the manufacturer (Perkin-Elmer Life Sciences, Inc., Boston, Mass.). Western blots were quantitated by densitometric analysis using IPLab Gel software (Scientific Image Processing, Vienna, Va.). Densitometric values of actin were used to standardize for equal protein loading. These values were introduced into the software Graph-Pad Prism version 4.0 (GraphPad Software, Inc., San Diego, Calif.) for statistical analysis.
as §3

[6] = system: CDK2 protein in MCF-7/Ac1 cells; assay: Western blot of CDK2 protein levels in adenovirus-infected cells; details: 25 nM AD, uninfected and LacZ infected cells
Method: as §4
MCF-7/Ac1 cells were cultured in IMEM with 10% charcoal-stripped serum medium (CSSM) without phenol red and with 600 μg/ml of G418 for 4 days before plating. […] Cells were then infected with the indicated adenoviruses (at 4000 m.o.i.) 24 hours before drug treatment.

[7] = system: cyclin E and CDK2 complexes in MCF-7/Ac1 cells; assay: Immunoprecipitation of cyclin E or CDK2 followed by western blot for p21 and p27; details: 25 nM AD
Method: as §2, §3

MCF-7/Ac1 cells [8] = assay: Sequential AD/letrozole then roscovitine treatment: cell number and CDK2 western blot; details: additional two days in medium or medium plus DMSO
Method: Medium alone or medium plus DMSO were used as controls. A schematic of the treatment strategy is depicted in FIG. 25A. At the conclusion of the treatment, cells were enumerated and subjected to western blot analysis with CDK2 (total) and phospho-CDK2 antibodies.
Cells were then infected with the indicated adenoviruses (at 4000 m.o.i.) 24 hours before drug treatment.

**Q.** How did the “inhibition of AD-induced growth” value (MCF-7/Ac1 cells [1]; any of the concentrations tested, with 25 nM AD) turn out when `CC(C)(C#N)c1cc(Cn2cncn2)cc(C(C)(C)C#N)c1` [anastrozole] was run?
**A.** The value was “did not inhibit”.

**Q.** And the “effect on cell cycle distribution” value (MCF-7/Ac1 cells [2]; 10 μM, with 25 nM AD)?
**A.** The value was “more subtle effect”.

**Q.** What does the source list for `C=C1C[C@@H]2[C@H](CC[C@]3(C)C(=O)CC[C@@H]23)[C@@]2(C)C=CC(=O)C=C12` [exemestane]?
**A.** inhibition at 1 µM (MCF-7/Ac1 cells [1]; Homo sapiens, MCF7, 72 h, 1 μM, with 25 nM AD, read-out: inhibition of AD-induced growth): 25%; inhibition at 10 µM (MCF-7/Ac1 cells [1]; Homo sapiens, MCF7, 72 h, 10 μM, with 25 nM AD, read-out: inhibition of AD-induced growth): 42%; cells in G0-G1 (MCF-7/Ac1 cells [2]; 10 μM, with 25 nM AD): 49.2+/−0.7%; cells in S phase (MCF-7/Ac1 cells [2]; 10 μM, with 25 nM AD): 31.7+/−2.5%

**Q.** With `CC[C@H](CO)Nc1nc(NCc2ccccc2)c2ncn(C(C)C)c2n1` [roscovitine] as the molecule, how does the cell viability (SKBr3 cells) read?
**A.** Its cell viability is “dose-dependent reduction in cell viability”.

**Q.** What about the cell viability (BT474 cells) of the same molecule?
**A.** The cell viability was “dose-dependent reduction in cell viability”.

**Q.** And the “inhibition of AD-induced increase in cell number” value (MCF-7/Ac1 cells [3])?
**A.** The value was “completely inhibited”.

**Q.** Which results are given for `C[C@]12CCC(=O)C=C1CC[C@@H]1[C@@H]2CC[C@]2(C)C(=O)CC[C@@H]12` [AD, androstenedione]?
**A.** increase in cell number compared to control cells (CSSM) (MCF-7/Ac1 cells [1]; 25 nM AD): 3.9+/−1.3 fold; increase in cyclin E-associated kinase activity compared to vehicle treated cells [4]: 1.6 fold; cyclin E protein levels (MCF-7/Ac1 cells [5]): not affected; increase in CDK2 protein levels compared to vehicle treated cells (MCF-7/Ac1 cells [5]; 3 days): 2.3 fold; increase in phospho-CDK2 (MCF-7/Ac1 cells [5]; phospho-specific CDK2 antibody): 3.5 fold; increase in total CDK2 protein levels [6]: 1.8 fold; increase in p21 binding to CDK2 [7]: 1.5 fold; p21 binding to cyclin E [7]: did not affect; increase in AD-induced proliferation (MCF-7/Ac1 cells [8]; LMW cyclin E overexpressing cells): 2.3 fold and 2.8 fold; increase in AD-induced proliferation (MCF-7/Ac1 cells [8]; LacZ infected cells): 3.5 fold; increase in AD-induced proliferation (MCF-7/Ac1 cells [8]; uninfected cells): 4 fold; fraction of cells in S phase (MCF-7/Ac1 cells [2]; 25 nM AD alone): 40.3+/−1.9%; increase of fraction of cells in S phase compared to vehicle treated cells (MCF-7/Ac1 cells [2]; 25 nM AD alone): 7.3 fold; cells in G0-G1 (MCF-7/Ac1 cells [2]; 25 nM AD alone (baseline of exemestane comparison)): 35.1+/−0.8%
